The source of these data is ChEMBL document CHEMBL1201862, “PubChem BioAssay data set” (2004).

What all share (assay): NCI-60 cell line screen, 48 h
Experiment [1] relates to SF-268.
The test system of experiment [2] is HCC 2998.
The test system of experiment [3] is K562.
Experiment [4] has as its system SR.
The subject of experiment [5] is HOP-62.
Experiment [6] relates to HL-60.
Experiment [7] relates to ACHN.
The test system of experiment [8] is OVCAR-5.
Experiment [9] has as its system CAKI-1.
Experiment [10] has as its system HCT-116.
Experiment [11] has as its system OVCAR-8.
The subject of experiment [12] is IGROV-1.
Experiment [13] relates to NCI-H522.
Experiment [14] has as its system SF-539.
For experiment [15], the system named is UO-31.
The subject of experiment [16] is SNB-19.
Experiment [17] has as its system NCI/ADR-RES.
The test system of experiment [18] is OVCAR-4.
The test system of experiment [19] is SN12C.
Experiment [20] has as its system HOP-92.

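Cells were grown in 96-well plates and exposed to each compound for 48 hours at five concentrations; endpoints were interpolated linearly between bracketing concentrations, or set to the highest concentration if not reached. At the GI50, growth is halved.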 The source made the active and inactive calls. No stated cut-off is given here; in the data, active = GI50 up to about 1.1 µM and inactive = higher.

On to `O=c1cnnc2sc(=S)[nH]n12`, for which the GI50 was 5.04 µM (inactive) in [1]; 44.5 µM (inactive) in [2]; 15.6 µM (inactive) in experiment [3]; 22.4 µM (inactive) in experiment [4]; 2.61 µM (inactive) in [5]; 16.6 µM (inactive) in experiment [6]. In addition, the GI50 in [7] is 53.5 µM (inactive); in [8] it was > 100 µM (inactive); in experiment [9] it was 21.9 µM (inactive); in experiment [10], > 100 µM (inactive); in experiment [11], 16.4 µM (inactive); in [12], 24 µM (inactive). Further, the GI50 in experiment [13] was 8.45 µM (inactive); in [14], > 100 µM (inactive); in [15], 22.2 µM (inactive); in experiment [16], 27.4 µM (inactive); in experiment [17], 30.1 µM (inactive); in experiment [18] it was 16.7 µM (inactive).
Take `COc1cc(OC)nc(-n2c(N)c(C(=O)O)c3ccc([N+](=O)[O-])cc3c2=O)n1`: the GI50 is > 100 µM (inactive) in [1]; > 100 µM (inactive) in [2]; > 100 µM (inactive) in [3]; > 100 µM (inactive) in experiment [4]; > 100 µM (inactive) in [5]; 60.5 µM (inactive) in experiment [6]. For the same compound, the GI50 in experiment [7] was > 100 µM (inactive); in [8], > 100 µM (inactive); in [9] it was > 100 µM (inactive); in experiment [10] it was > 100 µM (inactive); in experiment [11], > 100 µM (inactive); in [12] it was 67.8 µM (inactive). Also, the GI50 in [13] was > 100 µM (inactive); in [15], 71.1 µM (inactive); in [16], > 100 µM (inactive); in experiment [19], > 100 µM (inactive); in experiment [17], > 100 µM (inactive); in [18] it was > 100 µM (inactive).
As to `COc1ccc(/C=C2/SC(c3ccccc3)N(NC(=O)CCCCCCCCC(=O)NN3C(=O)/C(=C\c4ccc(OC)c(OC)c4)SC3c3ccccc3)C2=O)cc1OC` (stereo unspecified), the GI50 was 69.3 µM (inactive) in experiment [1]; > 100 µM (inactive) in [2]; 6.59 µM (inactive) in experiment [3]; 15.6 µM (inactive) in experiment [4]; 35 µM (inactive) in experiment [5]; 17.3 µM (inactive) in experiment [20]. Further, the GI50 in [7] was 25.6 µM (inactive); in experiment [8] it was > 100 µM (inactive); in experiment [9], 53.6 µM (inactive); in [10], 29.1 µM (inactive); in [11], 67.8 µM (inactive); in experiment [12] it was 1.03 µM (active). The GI50 was 24.6 µM (inactive) in experiment [14]; 58.2 µM (inactive) in [15]; 86.1 µM (inactive) in [16]; > 100 µM (inactive) in [19]; 60.3 µM (inactive) in [17]; 76.7 µM (inactive) in [18].
Turning to `O=C(NNC(=O)c1ccccc1O)c1ccc(O)cc1`, the GI50 was 9.95 µM (inactive) in [1]; 84.9 µM (inactive) in [3]; 49.1 µM (inactive) in experiment [4]; 47.5 µM (inactive) in [5]; 52.8 µM (inactive) in experiment [6]; > 100 µM (inactive) in [8]. In addition, the GI50 is 50.9 µM (inactive) in experiment [9]; 33.2 µM (inactive) in experiment [10]; 21.1 µM (inactive) in experiment [11]; 23.9 µM (inactive) in experiment [12]; 13.1 µM (inactive) in [13]; 66.7 µM (inactive) in [14]. Also, the GI50 in [15] was 42 µM (inactive); in [16], > 100 µM (inactive); in experiment [19] it was > 100 µM (inactive); in experiment [17], 22.1 µM (inactive); in [18], 91.6 µM (inactive).
As for `O=C1c2ccccc2C(=O)c2c1sc1nc3ccccc3n21`, the GI50 in [1] is 1.89 µM (inactive); in experiment [2] it was 1.73 µM (inactive); in experiment [3], 2.03 µM (inactive); in experiment [4], 3.53 µM (inactive); in experiment [6] it was 3.8 µM (inactive); in experiment [20], 10.4 µM (inactive). In addition, the GI50 in experiment [7] was 2.23 µM (inactive); in experiment [8] it was 2.45 µM (inactive); in experiment [9], 1.99 µM (inactive); in [10] it was 1.7 µM (inactive); in experiment [11], 1.9 µM (inactive); in experiment [12], 2.44 µM (inactive). Moreover, the GI50 in experiment [14] was 1.81 µM (inactive); in [15], 2.01 µM (inactive); in experiment [16] it was 2.11 µM (inactive); in [19], 1.52 µM (inactive); in experiment [17], 1.77 µM (inactive).
Turning to `Cc1c(N2C(=O)/C(=C/c3ccc(Cl)cc3)N=C2c2ccccc2)c(=O)n(-c2ccccc2)n1C`, the GI50 was 30.8 µM (inactive) in [1]; 36.6 µM (inactive) in experiment [3]; 30.5 µM (inactive) in experiment [4]; 81.5 µM (inactive) in experiment [5]; 27.4 µM (inactive) in experiment [6]; 18.7 µM (inactive) in experiment [20]. The GI50 in [7] is 24.8 µM (inactive); in experiment [8], 49.2 µM (inactive); in [9], 34.6 µM (inactive); in experiment [10], 32.3 µM (inactive); in [11], 43.7 µM (inactive); in [12], 29 µM (inactive). The GI50 was 19.8 µM (inactive) in experiment [13]; 28.5 µM (inactive) in experiment [14]; 26.2 µM (inactive) in experiment [15]; 34.1 µM (inactive) in experiment [19]; 44.5 µM (inactive) in experiment [17]; 33.9 µM (inactive) in experiment [18].
On to `COc1cc(/C=C/C(=O)CC(=O)/C=C/c2ccc(O)c(OC)c2)ccc1O` [CURCUMIN], for which the GI50 is 7.06 µM (inactive) in [1]; 3.02 µM (inactive) in experiment [2]; 3.13 µM (inactive) in experiment [3]; 3.28 µM (inactive) in experiment [4]; 3.63 µM (inactive) in experiment [5]; 7.33 µM (inactive) in experiment [6]. The GI50 is 12.4 µM (inactive) in experiment [7]; 16.6 µM (inactive) in experiment [8]; 11.9 µM (inactive) in experiment [9]; 2.92 µM (inactive) in experiment [10]; 7.35 µM (inactive) in experiment [11]; 7.89 µM (inactive) in experiment [12]. The GI50 in [13] was 5.33 µM (inactive); in experiment [14], 2.84 µM (inactive); in experiment [15], 11.3 µM (inactive); in [16], 9.42 µM (inactive); in experiment [19], 8.41 µM (inactive); in [17], 7.26 µM (inactive). Also, in experiment [18], the GI50 was 9.33 µM (inactive).
With `CO[C@H]1c2cccc3cccc(c23)[C@@H]1n1[nH]c(=O)n(C(C)(C)C)c1=O`, the GI50 in experiment [1], in [2], in experiment [3], in [4], in experiment [6] and in [8] was > 100 µM (inactive) in each case. Moreover, the GI50 in experiment [9], in [10], in experiment [11], in experiment [12], in [13] and in experiment [14] was > 100 µM (inactive) in each case. For the same compound, the GI50 in experiment [15] is 69.8 µM (inactive); in experiment [16] it was > 100 µM (inactive); in experiment [19], > 100 µM (inactive); in [17], > 100 µM (inactive); in [18] it was > 100 µM (inactive).
For the compound `COc1ccc(CC2(O)C3CC4CCC2C4C3)cc1` (stereo unspecified), the GI50 in experiment [1] was > 100 µM (inactive); in experiment [3], 49.1 µM (inactive); in experiment [4], 58.7 µM (inactive); in [5], > 100 µM (inactive); in experiment [6], 51.1 µM (inactive); in [20], 58.5 µM (inactive). The GI50 was > 100 µM (inactive) in experiment [7]; > 100 µM (inactive) in experiment [8]; > 100 µM (inactive) in experiment [9]; > 100 µM (inactive) in [11]; > 100 µM (inactive) in experiment [12]; 88.3 µM (inactive) in experiment [13]. Moreover, the GI50 in [15] is 49.7 µM (inactive); in [16], > 100 µM (inactive); in [19] it was 77.4 µM (inactive); in [17], 44.7 µM (inactive); in [18], > 100 µM (inactive).
Regarding `CCCCCCCCCCCCOCCOCCOCCOCCOCCOCC(=O)NC(Cc1ccccc1)C(=O)Oc1ccc([N+](=O)[O-])cc1` (stereo unspecified), the GI50 in [1] was 50.9 µM (inactive); in experiment [3], 41.7 µM (inactive); in [4], 23.3 µM (inactive); in [5], 40.9 µM (inactive); in experiment [6] it was 21.9 µM (inactive); in experiment [20], 26.7 µM (inactive). The GI50 in experiment [7] was 27.2 µM (inactive); in experiment [8], > 100 µM (inactive); in experiment [9] it was > 100 µM (inactive); in [10], 31.6 µM (inactive); in [11], 44.5 µM (inactive); in experiment [12], 44.3 µM (inactive). The GI50 in [13] is 29.9 µM (inactive); in experiment [14], 36.4 µM (inactive); in [15], 26 µM (inactive); in experiment [16], 47.3 µM (inactive); in [17], 37.5 µM (inactive); in experiment [18], 40.9 µM (inactive).
For the compound `O=C(CCC(=O)OCC1OC(O)(CC2OC(CO)C(O)C(O)C2O)C(O)C1O)OCc1ccccc1` (stereo unspecified), the GI50 in experiment [1], in experiment [2], in [3], in [5], in experiment [6] and in [20] was > 100 µM (inactive) in each case. The GI50 in experiment [7], in experiment [8], in [9], in [10], in experiment [11] and in [12] was > 100 µM (inactive) each time. For the same compound, the GI50 in experiment [13], in experiment [14], in [15], in experiment [16], in [19] and in experiment [17] was > 100 µM (inactive) each time. Besides, the GI50 in [18] was > 100 µM (inactive).
